According to patent US20030157174A1, “Enteric granular preparations of hardly water soluble drugs characterized by containing water-repellent component” (priority 2002, published 2003):
In brackets after ≈: the same amount, converted by molar mass.

Assay: Solubilities of Compound A to several test solutions
Format: physicochemical
Text: Compound A was used as an insoluble active ingredient in the following references and examples.

SMILES: CC1(C)[C@H]2C[C@H](C/C=C\CCCC(=O)O)[C@@H](NC(=O)c3csc4ccc(O)cc34)[C@@H]1C2 [Compound A, (Z)-7-[(1R,2R,3S,5S)-2-(5-hydroxybenzo[b]thiophen-3-ylcarbonylamino)-10-norpinan-3-yl]-5-heptenoic acid]
- Final pH (test solution JP-1 Sol.): 1.15
- Final pH (test solution JP-2 Sol.): 6.84
- Solubility 3 hours (test solution JP-2 Sol.): 81.08 µg/mL (≈ 184 µM)
- Solubility 6 hours (test solution JP-2 Sol.): 81.65 µg/mL (≈ 185 µM)
- Final pH (test solution Water): 5.81
- Solubility 3 hours (test solution Water): 5.56 µg/mL (≈ 12.6 µM)
- Solubility 6 hours (test solution Water): 5.93 µg/mL (≈ 13.4 µM)
- Final pH (test solution pH4.0): 4.07
- Final pH (test solution pH6.0): 6.08
- Solubility 3 hours (test solution pH6.0): 15.19 µg/mL (≈ 34.4 µM)
- Solubility 6 hours (test solution pH6.0): 15.57 µg/mL (≈ 35.3 µM)
- Final pH (test solution pH7.8): 7.6
- Solubility 3 hours (test solution pH7.8): 487.87 µg/mL (≈ 1100 µM)
- Solubility 6 hours (test solution pH7.8): 489.05 µg/mL (≈ 1110 µM)
- Final pH (test solution pH8.0): 7.76
- Solubility 3 hours (test solution pH8.0): 652.56 µg/mL (≈ 1480 µM)
- Solubility 6 hours (test solution pH8.0): 675.55 µg/mL (≈ 1530 µM)
- Final pH (test solution pH8.5): 8.29
- Solubility 3 hours (test solution pH8.5): 6197.64 µg/mL (≈ 14000 µM)
- Solubility 6 hours (test solution pH8.5): 6224.39 µg/mL (≈ 14100 µM)
